According to patent publication US20260250325A1, “Antiviral Polypeptide Membrane Fusion Inhibitor, and Preparation Method and Application Thereof” (priority 2025, published 2026):
Where a SMILES comes first, the peptide text is derived from it. The star is where a group is joined. Succinyl(4-O-cholesteryl) = CC(C)CCC[C@@H](C)[C@H]1CC[C@H]2[C@@H]3CC=C4C[C@@H](OC(=O)CCC(=O)*)CC[C@]4(C)[C@H]3CC[C@]12C; X1 = CC(C)CCCC(C)C1CCC2C3CC=C4CC(OC(=O)CCC(=O)*)CCC4(C)C3CCC12C

Experiments:
Assay type in all cases: cell-based
[1] = system: hMPV B1; conditions: Vero cells, plaque reduction
Description: (§1) African green monkey kidney cells (Vero) were sourced from the ATCC, with catalog number CCL-81. The cells were cultured in a DMEM culture solution in which 10% fetal bovine serum, 1% non-essential amino acids, 1% sodium pyruvate, 1% L-glutamine, 100 U/ml penicillin, and 100 μg/ml streptomycin were added.
(§2) A hMPV plaque experiment culture medium consisted of an Opti-MEM culture solution added with 1% non-essential amino acids, 100 U/mL penicillin, and 100 μg/mL streptomycin.
(§3) hMPV virus strains A2 and B1 were constructed by WuXi App Tec.
(§4) This study used a plaque reduction experiment to detect the in-vitro activity of a test sample against the hMPV virus strains A2 and B1.
(§5) The test sample and an experimental system were tested at 8 concentrations in duplicated wells. The Vero cells were digested with trypsin and then diluted to a concentration of 400,000 cells per milliliter by using a cell culture solution containing 2% serum. The diluted cells were added to a 96-well cell test board, with 100 μL per well, corresponding to 40000 cells per well. The cells were cultured overnight in a 37° C. incubator with 5% CO2.
(§6) On the second day, the test sample was diluted in an experimental culture medium at a fold ratio. The sample diluted at a fold ratio and an equal volume of virus (approximately 200 PFU per well) were well mixed and incubated at 33° C. in 5% CO2 for 1 h. Then, the culture solution in the 96-well cell test board was discarded, the sample virus mixed solution (100 μL) was added to the 96-well cell culture plate, and incubated at 37° C. in 5% CO2 for 2 hours. After 2 h, the sample virus mixed solution was discarded, 200 μL of an experiment culture medium containing the test sample with a corresponding concentration was added, and the culture solution contained 0.8% CMC and 5 μg/ml trypsin. A final concentration of DMSO in the culture solution was 0.5%. A system control antibody was directly added to the experiment culture solution containing 0.8% CMC and 5 μg/ml trypsin. A cell control (cells, without compound treatment or viral infection) and a viral control (cell infection virus, without compound treatment) were set. The cells were cultured for 1 day in the 33° C. incubator with 5% CO2.
(§7) The cells were fixed with 4% paraformaldehyde, and then permeabilization was performed with 0.5% Triton X-100. After the plate was washed with DPBS, a hMPV specific antibody (1:2000 dilution) was added and incubated at 37° C. for 1.5 h. Then, a secondary antibody (1:1000 dilution) was added and incubated at 37° C. for 1 hour. The secondary antibody was discarded, a TrueBlue solution was added, dyeing was performed for approximately 10 minutes; and the plate was washed with running water and then air-dried, and the number of spots in each well was counted by using a microplate imaging counter.
(§8) Raw data was used for analyzing the antiviral activity of the test samples. A calculation formula was shown as follows.
(§9) % inhibition rate=100−(sample value-cell control average value)/(virus control average value-cell control average value)×100
(§10) Non-linear fitting analysis was performed on the inhibition rate of the sample by using GraphPad Prism (version 10), so as to calculate an EC50 value for the sample. A fitting formula was log (inhibitor) vs. response-Variable slope (four parameters).

[2] = system: hMPV A2; conditions: Vero cells, plaque reduction
Description: as §1, §2, §3, §4, §5, §6, §7, §8, §9, §10

[3] = system: RSV A long virus strain; conditions: RSV A long virus strain, HEp-2 cells, plaque reduction, 1 day; read-out: IC50
Outline: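 Plaque reduction in HEp-2 cells: virus (100 PFU/well) and serially diluted compound (8 concentrations) mixed 1 h, adsorbed 2 h, then overlaid with 0.8% CMC medium plus compound for 1 day at 37 °C. Spots counted after anti-RSV immunostaining; IC50 from normalized inhibition, CC50 from viability data.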

Row | SMILES | EC50 [1] [nM] | EC50 [2] [nM] | IC50 [3] [nM]
1 | CC[C@H](C)[C@H](NC(=O)[C@H](CCCCN)NC(=O)[C@H](CCCCN)NC(=O)[C@H](CC(C)C)NC(=O)[C@H](CO)NC(=O)[C@H](CCC(=O)O)NC(=O)[C@H](CCC(=O)O)NC(=O)[C@@H](NC(=O)[C@H](CCCCN)NC(=O)[C@H](CCCCN)NC(=O)[C@H](CC(N)=O)NC(=O)[C@@H](NC(=O)[C@H](CCC(=O)O)NC(=O)[C@H](CCC(=O)O)NC(=O)[C@@H](NC(=O)[C@H](CCCCN)NC(=O)[C@H](CCCCN)NC(=O)[C@H](CC(=O)O)NC(=O)[C@H](Cc1ccccc1)NC(=O)[C@H](CCC(=O)O)NC(=O)[C@H](CC(=O)O)NC(=O)[C@H](Cc1c[nH]c2ccccc12)NC(C)=O)[C@@H](C)CC)C(C)C)[C@@H](C)CC)C(=O)N[C@@H](CCC(=O)O)C(=O)N[C@@H](CCC(=O)O)C(=O)N[C@@H](CO)C(=O)N[C@@H](CC(=O)O)C(=O)N[C@@H](CCCCN)C(=O)N[C@@H](CCCCN)C(=O)N[C@@H](CC(C)C)C(=O)N[C@@H](CCC(=O)O)C(=O)N[C@@H](C)C(=O)N[C@@H](C)C(=O)N[C@@H](C)C(=O)N[C@@H](CCCCN)C(=O)N[C@@H](CCCCNC(=O)CCC(=O)O[C@H]1CC[C@@]2(C)C(=CC[C@H]3[C@@H]4CC[C@H]([C@H](C)CCCC(C)C)[C@@]4(C)CC[C@@H]32)C1)C(N)=O [Compound 13] (Ac-WDEFDKKIEEVNKKIEESLKKIEESDKKLEAAAKK(Succinyl(4-O-cholesteryl))-NH2) | 6.18 | 11.7 | 13
2 | CC[C@H](C)[C@H](NC(=O)[C@H](CCCCN)NC(=O)[C@H](CCCCN)NC(=O)[C@H](CC(C)C)NC(=O)[C@H](CO)NC(=O)[C@H](CCC(=O)O)NC(=O)[C@H](CCC(=O)O)NC(=O)[C@@H](NC(=O)[C@H](CCCCN)NC(=O)[C@H](CCCCN)NC(=O)[C@H](CC(N)=O)NC(=O)[C@@H](NC(=O)[C@H](CCC(=O)O)NC(=O)[C@H](CCC(=O)O)NC(=O)[C@@H](NC(=O)[C@H](CCCCN)NC(=O)[C@H](CCCCN)NC(=O)[C@H](CCCCN)NC(=O)[C@H](CC(=O)O)NC(=O)[C@H](Cc1ccccc1)NC(=O)[C@H](CCC(=O)O)NC(=O)[C@H](CC(=O)O)NC(C)=O)[C@@H](C)CC)C(C)C)[C@@H](C)CC)C(=O)N[C@@H](CCC(=O)O)C(=O)N[C@@H](CCC(=O)O)C(=O)N[C@@H](CO)C(=O)N[C@@H](CC(=O)O)C(=O)N[C@@H](CCCCN)C(=O)N[C@@H](CCCCN)C(=O)N[C@@H](CC(C)C)C(=O)N[C@@H](CCC(=O)O)C(=O)N[C@@H](CCC(=O)O)C(=O)N[C@H](C(=O)NCC(=O)N[C@@H](CO)C(=O)NCC(=O)N[C@@H](CO)C(=O)NCC(=O)N[C@@H](CCCCNC(=O)CCC(=O)O[C@H]1CC[C@@]2(C)C(=CC[C@H]3[C@@H]4CC[C@H]([C@H](C)CCCC(C)C)[C@@]4(C)CC[C@@H]32)C1)C(N)=O)C(C)C [Compound 15] (Ac-DEFDKKKIEEVNKKIEESLKKIEESDKKLEEVGSGSGK(Succinyl(4-O-cholesteryl))-NH2) | 5.18 | 17.9 | 10.4
3 | CC[C@H](C)[C@H](NC(=O)[C@H](CCCCN)NC(=O)[C@H](CCCCN)NC(=O)[C@H](CC(C)C)NC(=O)[C@H](CO)NC(=O)[C@H](CCC(=O)O)NC(=O)[C@H](CCC(=O)O)NC(=O)[C@@H](NC(=O)[C@H](CCCCN)NC(=O)[C@H](CCCCN)NC(=O)[C@H](CC(N)=O)NC(=O)[C@@H](NC(=O)[C@H](CCC(=O)O)NC(=O)[C@H](CCC(=O)O)NC(=O)[C@@H](NC(=O)[C@H](CCCCN)NC(=O)[C@H](CCCCN)NC(=O)[C@H](CC(=O)O)NC(=O)[C@H](Cc1ccccc1)NC(=O)[C@H](CCC(=O)O)NC(=O)[C@H](CC(=O)O)NC(=O)[C@H](CO)NC(C)=O)[C@@H](C)CC)C(C)C)[C@@H](C)CC)C(=O)N[C@@H](CCC(=O)O)C(=O)N[C@@H](CCC(=O)O)C(=O)N[C@@H](CO)C(=O)N[C@@H](CC(=O)O)C(=O)N[C@@H](CCCCN)C(=O)N[C@@H](CCCCN)C(=O)N[C@@H](CC(C)C)C(=O)N[C@@H](CCC(=O)O)C(=O)N[C@@H](C)C(=O)N[C@@H](C)C(=O)N[C@@H](C)C(=O)N[C@@H](CCCCN)C(=O)N[C@@H](CCCCNC(=O)CCC(=O)O[C@H]1CC[C@@]2(C)C(=CC[C@H]3[C@@H]4CC[C@H]([C@H](C)CCCC(C)C)[C@@]4(C)CC[C@@H]32)C1)C(N)=O [Compound 16] (Ac-SDEFDKKIEEVNKKIEESLKKIEESDKKLEAAAKK(Succinyl(4-O-cholesteryl))-NH2) | 4.5 | 7.35 | 10.3
4 | CC[C@H](C)[C@H](NC(=O)[C@H](CCCCN)NC(=O)[C@H](CCCCN)NC(=O)[C@H](CC(C)C)NC(=O)[C@H](CO)NC(=O)[C@H](CCC(=O)O)NC(=O)[C@H](CCC(=O)O)NC(=O)[C@@H](NC(=O)[C@H](CCCCN)NC(=O)[C@H](CCCCN)NC(=O)[C@H](CC(N)=O)NC(=O)[C@@H](NC(=O)[C@H](CCC(=O)O)NC(=O)[C@H](CCC(=O)O)NC(=O)[C@@H](NC(=O)[C@H](CCCCN)NC(=O)[C@H](CCCCN)NC(=O)[C@H](CC(=O)O)NC(=O)[C@H](Cc1ccccc1)NC(=O)[C@H](CCC(=O)O)NC(=O)[C@H](CC(=O)O)NC(=O)[C@H](CO)NC(C)=O)[C@@H](C)CC)C(C)C)[C@@H](C)CC)C(=O)N[C@@H](CCC(=O)O)C(=O)N[C@@H](CCC(=O)O)C(=O)N[C@@H](CO)C(=O)N[C@@H](CC(=O)O)C(=O)N[C@@H](CCCCN)C(=O)N[C@@H](CCCCN)C(=O)N[C@@H](CC(C)C)C(=O)NCC(=O)N[C@@H](CO)C(=O)NCC(=O)N[C@@H](CO)C(=O)NCC(=O)N[C@@H](CCCCNC(=O)CCC(=O)O[C@H]1CC[C@@]2(C)C(=CC[C@H]3[C@@H]4CC[C@H]([C@H](C)CCCC(C)C)[C@@]4(C)CC[C@@H]32)C1)C(N)=O [Compound 20] (Ac-SDEFDKKIEEVNKKIEESLKKIEESDKKLGSGSGK(Succinyl(4-O-cholesteryl))-NH2) | 4.27 | 7.47 | 19.8
5 | CC[C@H](C)[C@H](NC(=O)[C@H](CCCCN)NC(=O)[C@H](CCCCN)NC(=O)[C@H](CC(C)C)NC(=O)[C@H](CO)NC(=O)[C@H](CCC(=O)O)NC(=O)[C@H](CCC(=O)O)NC(=O)[C@@H](NC(=O)[C@H](CCCCN)NC(=O)[C@H](CCCCN)NC(=O)[C@H](CC(N)=O)NC(=O)[C@@H](NC(=O)[C@H](CCC(=O)O)NC(=O)[C@H](CCC(=O)O)NC(=O)[C@@H](NC(=O)[C@H](CCCCN)NC(=O)[C@H](CCCCN)NC(=O)[C@H](CC(=O)O)NC(=O)[C@H](Cc1ccccc1)NC(=O)[C@H](CCC(=O)O)NC(=O)[C@H](CC(=O)O)NC(C)=O)[C@@H](C)CC)C(C)C)[C@@H](C)CC)C(=O)N[C@@H](CCC(=O)O)C(=O)N[C@@H](CCC(=O)O)C(=O)N[C@@H](CO)C(=O)N[C@@H](CC(=O)O)C(=O)N[C@@H](CCCCN)C(=O)N[C@@H](CCCCN)C(=O)N[C@@H](CC(C)C)C(=O)N[C@@H](CCC(=O)O)C(=O)N[C@@H](CCC(=O)O)C(=O)N[C@H](C(=O)N[C@@H](CCC(=O)O)C(=O)N[C@@H](C)C(=O)N[C@@H](C)C(=O)N[C@@H](C)C(=O)N[C@@H](CCCCN)C(=O)N[C@@H](CCCCNC(=O)CCC(=O)OC1CCC2(C)C(=CCC3C2CCC2(C)C(C(C)CCCC(C)C)CCC32)C1)C(N)=O)C(C)C (stereo partly drawn) [Compound 21] (Ac-DEFDKKIEEVNKKIEESLKKIEESDKKLEEVEAAAKK(X1)-NH2) | 4.92 | 11.2 | 14.6
